The structures appear in SMILES notation.

These results are taken from patent publication US20230091225A1, “Bifunctional chimeric heterocyclic compounds for targeted degradation of androgen receptors and use thereof” (HINOVA PHARMACEUTICALS INC., priority 2019, published 2023).

In this assay the target is T1, androgen receptor (AR) (Homo sapiens, UniProt P10275).
T1 sequence (P10275 1-920): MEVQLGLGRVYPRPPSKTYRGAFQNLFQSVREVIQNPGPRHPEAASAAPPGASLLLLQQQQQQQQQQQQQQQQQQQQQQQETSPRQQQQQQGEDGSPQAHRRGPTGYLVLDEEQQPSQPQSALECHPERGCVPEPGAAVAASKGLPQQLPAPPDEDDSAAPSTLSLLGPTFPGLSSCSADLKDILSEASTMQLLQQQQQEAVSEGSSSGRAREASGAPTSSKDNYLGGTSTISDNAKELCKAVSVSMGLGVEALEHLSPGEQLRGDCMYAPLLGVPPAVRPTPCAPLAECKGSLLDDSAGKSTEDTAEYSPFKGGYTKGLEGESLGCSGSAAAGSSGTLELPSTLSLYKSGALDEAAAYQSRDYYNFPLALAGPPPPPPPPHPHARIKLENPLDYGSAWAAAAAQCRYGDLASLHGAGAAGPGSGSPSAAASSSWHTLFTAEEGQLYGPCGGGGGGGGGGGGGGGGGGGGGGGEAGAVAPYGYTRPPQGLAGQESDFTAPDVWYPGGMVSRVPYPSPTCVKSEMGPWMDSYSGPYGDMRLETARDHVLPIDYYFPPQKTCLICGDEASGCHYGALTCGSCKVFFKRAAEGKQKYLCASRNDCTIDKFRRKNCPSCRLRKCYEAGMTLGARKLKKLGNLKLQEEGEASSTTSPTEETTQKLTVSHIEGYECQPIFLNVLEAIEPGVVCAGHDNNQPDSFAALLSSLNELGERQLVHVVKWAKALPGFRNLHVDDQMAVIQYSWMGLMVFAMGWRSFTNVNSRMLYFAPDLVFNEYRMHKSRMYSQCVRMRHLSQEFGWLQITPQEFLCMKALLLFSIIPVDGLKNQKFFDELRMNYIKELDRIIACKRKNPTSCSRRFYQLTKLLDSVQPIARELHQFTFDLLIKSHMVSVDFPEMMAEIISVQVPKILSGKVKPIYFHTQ
The assay can be described thus: Degradation of androgen receptor (AR) protein in VCaP cells by Western blot. In kind it is cell-based. To be noted: percentage of degraded AR at 100 nM, VCaP cells, 16 h. An outline of the steps: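 AR and β-actin levels were read by Western blot with ECL detection, loading 30 μg lysate protein per well. Before lysis, VCaP cells seeded at 5×10^5/well and grown overnight were exposed to compound for 16 h, two wells per concentration, keeping DMSO at 0.1%.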
Turning to `N#Cc1ccc(O[C@H]2CC[C@H](NC(=O)c3cnc(N4CCN([C@@H]5C[C@@H]6CN(c7cc8c(cc7F)C(=O)N(C7CCC(=O)NC7=O)C8=O)C[C@@H]6C5)CC4)nc3)CC2)cc1Cl` (stereo partly drawn) [Compound 299, N-((1r,4r)-4-(3-chloro-4-cyanophenoxy)cyclohexyl)-2-(4-((3aR,5R,6aS)-2-(2-(2,6-dioxopiperidin-3-yl)-6-fluoro-1,3-dioxoisoindolin-5-yl)octahydrocyclopenta[c]pyrrol-5-yl)piperazin-1-yl)pyrimidine-5-formamide], the inhibition at 0.1 µM was below 25%.

Regarding `N#Cc1ccc(O[C@H]2CC[C@H](NC(=O)c3cnc(N4CCN([C@@H]5C[C@@H]6CN(c7ccc8c(c7)C(=O)N(C7CCC(=O)NC7=O)C8=O)C[C@@H]6C5)CC4)nc3)CC2)cc1Cl` (stereo partly drawn) [Compound 300, N-((1r,4r)-4-(3-chloro-4-cyanophenoxy)cyclohexyl)-2-(4-((3aR,5R,6aS)-2-(2-(2,6-dioxopiperidin-3-yl)-1,3-dioxoisoindolin-5-yl)octahydrocyclopenta[c]pyrrol-5-yl)piperazin-1-yl)pyrimidine-5-carboxamide], the inhibition at 0.1 µM was below 25%.

Consider `N#Cc1ccc(O[C@H]2CC[C@H](NC(=O)c3cnc(N4CCN(C(=O)O[C@H]5C[C@@H]6CN(c7ccc8c(c7)C(=O)N(C7CCC(=O)NC7=O)C8=O)C[C@@H]6C5)CC4)cn3)CC2)cc1Cl` (some centres unmarked) [Compound 301], for which the inhibition at 0.1 µM is 50 to 79%.

Regarding `N#Cc1ccc(O[C@H]2CC[C@H](NC(=O)c3ccc(N4CCC(NC5CCN(c6ccc7c(c6)C(=O)N(C6CCC(=O)NC6=O)C7=O)CC5)CC4)cc3)CC2)cc1Cl` (some centres unmarked) [Compound 302, N-((1r,4r)-4-(3-chloro-4-cyanophenoxy)cyclohexyl)-4-(4-((1-(2-(2,6-dioxopiperidin-3-yl)-1,3-dioxoisoindolin-5-yl)piperidine-4-yl)amino)piperidin-1-yl)benzamide], the inhibition at 0.1 µM was below 25%.

`N#Cc1ccc(O[C@H]2C[C@H]3C[C@@H](NC(=O)c4cnc(N5CCC(CN6CCN(c7ccc8c(c7)C(=O)N(C7CCC(=O)NC7=O)C8=O)CC6)CC5)cn4)C[C@H]3C2)cc1Cl` (stereo partly drawn) [Compound 303, N-((2s,3aR,5R,6aS)-5-(3-chloro-4-cyanophenoxy)octahydropenten-2-yl)-5-(4-((4-(2-(2,6-dioxopiperidin-3-yl)-1,3-dioxoisoindolin-5-yl)piperazin-1-yl)methyl)piperidin-1-yl)piperazine-2-carboxamide] yielded an inhibition at 0.1 µM below 25%.

As for `CC1(C)[C@H](Oc2ccc(C#N)c(Cl)c2)C(C)(C)[C@H]1N1Cc2nc(C#CC3CCN(C4CCN(c5ccc6c(c5)C(=O)N(C5CCC(=O)NC5=O)C6=O)CC4)CC3)ccc2C1=O` (some centres unmarked) [Compound 315, 2-chloro-4-((1r,3r)-3-(2-((1′-(2-(2,6-dioxopiperidin-3-yl)-1,3-dioxoisoindolin-5-yl)-[1,4′-dipiperidine]4-yl)ethynyl)-5-oxo-5,7-dihydro-6H-pyrrolo[3,4-b]pyridin-6-yl)-2,2,4,4-tetramethylcyclobutoxy)benzonitrile], the inhibition at 0.1 µM is below 25%.

`CC1(C)[C@H](Oc2ccc(C#N)c(Cl)c2)C(C)(C)[C@H]1N1Cc2nc(C#CC3CCN(C4CCN(c5cc6c(cc5F)C(=O)N(C5CCC(=O)NC5=O)C6=O)CC4)CC3)ccc2C1=O` (some centres unmarked) [Compound 316] registered an inhibition at 0.1 µM of 25 to 49%.

`CC1(C)[C@H](Oc2ccc(C#N)c(Cl)c2)C(C)(C)[C@H]1N1Cc2nc(C#CC3CCN(C4CN(c5ccc6c(c5)C(=O)N(C5CCC(=O)NC5=O)C6=O)C4)CC3)ccc2C1=O` (some centres unmarked) [Compound 317, 2-Chloro-4-((1r,3r)-3-(2-((1-(1-(2-(2,6-dioxopiperidin-3-yl)-6-fluoro-1,3-dioxoisoindolin-5-yl)azitidin-3-yl)piperidine-4-yl)ethynyl)-5-oxo-5H-pyrrolino [3,4-b]pyridin-6(7H)-yl)-2,2,4,4-tetramethylcyclobutoxy)benzonitrile] yielded an inhibition at 0.1 µM of 50 to 79%.

A word on the inhibition: it is the drop in the measured response relative to a control, in per cent. Read a high inhibition as a response far below the control.
